Laboratory results taken from PubChem BioAssay (NCI).
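How tested: cells in 96-well plates exposed to compound for 48 hours at five concentrations. Here, GI50 denotes the concentration required for 50% inhibition of growth. TGI marks complete inhibition of growth.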

What was measured:
Experiment in all cases: growth of human tumour cells (NCI), 48 h
[1] = tested on: NCI-H460 lung
[2] = tested on: MALME-3M melanoma
[3] = tested on: MDA-MB-231 breast
[4] = tested on: SK-MEL-28 melanoma
[5] = tested on: MCF7 breast
[6] = tested on: IGROV1 ovarian
[7] = tested on: KM12 colon
[8] = tested on: K-562 leukemia
[9] = tested on: UACC-257 melanoma
[10] = tested on: UACC-62 melanoma

SMILES	GI50 [1] [µM]	TGI [1] [µM]	GI50 [2] [µM]	TGI [2] [µM]	GI50 [3] [µM]	TGI [3] [µM]	GI50 [4] [µM]	TGI [4] [µM]	GI50 [5] [µM]	TGI [5] [µM]	GI50 [6] [µM]	TGI [6] [µM]	GI50 [7] [µM]	TGI [7] [µM]	GI50 [8] [µM]	TGI [8] [µM]	GI50 [9] [µM]	TGI [9] [µM]	GI50 [10] [µM]	TGI [10] [µM]
CCn1c(-c2nonc2N)nc2ccc(F)cc21	> 25	> 25	> 25	> 25	> 25	> 25	> 25	> 25	> 25	> 25	> 25	> 25	> 25	> 25	> 25	> 25	> 25	> 25	> 25	> 25
Clc1ccc(OCc2nnc3n2N=C(c2ccc(Cl)cc2Cl)CS3)c(Cl)c1	19.3	56.3	23.8	79.7	14.9	38.3	22.6	57	22.5	92.8	20	52.9	25.5	> 100	33.4	> 100	24	52	14.1	32.2
COc1ccccc1C(=O)c1ccc2ccccc2c1	–	84.1	–	42.6	–	> 100	–	> 100	–	> 100	–	53	–	33.2	–	> 100	–	> 100	–	> 100
FC(F)(F)c1ccc2c(Nc3cccc(C4CC(c5ccccc5)=NN4c4ccc(Cl)cc4)c3)ccnc2c1 (stereo not given)	4.08	17.2	4.38	21	3.88	15.9	4.54	18.3	1.67	10.6	2.57	11	3.16	16.7	3.31	14.3	11.2	32.6	2.64	10.6
CCCCCCNc1nc(NCCCCCC)c2[nH]c(NCCCCCC)nc2n1	5.37	19.5	4.5	16.1	5.09	19.3	12.1	24.6	3.22	15.8	19	> 53.2	8.01	21.1	7.02	25.1	17	32.9	13.4	28.6
CCCCCC(=O)Oc1ccc(/C(=C(\C)c2ccc(OC)cc2)c2ccc(OCCN3CCCCC3)cc2)cc1	4.42	15.8	2.84	10.4	9.32	21.9	3.6	12.8	0.726	14.4	10.4	25.9	8.83	27	3.16	16.2	2.31	5.83	7.19	20
Nc1ccc(SC23CC4CC(CC(C4)C2)C3)cc1	–	> 100	–	> 100	–	> 100	–	> 100	–	> 100	–	> 100	–	> 100	–	> 100	–	> 100	–	> 100
Cc1ccc(C(=O)CC(Sc2cccc(Cl)c2Cl)c2ccc(Cl)cc2)cc1C (stereo not given)	19.1	42.1	15.5	39.9	17.9	39	20.5	44.8	15.9	36.1	19.7	41.2	15.4	34.1	27.2	> 100	20.9	48.6	21.2	57.6
NCCN1CCN(c2nccc(-c3ccc4ccccc4c3)n2)CC1	1.91	3.69	1.83	3.52	1.66	3.31	1.85	3.42	1.67	3.52	1.97	4.12	1.85	3.48	2.09	4.09	1.86	3.41	1.87	3.65
CC(=O)n1c(-c2ccc(Cl)cc2)nc2c(c1=O)C(c1ccc(Cl)cc1)c1sc3c(Cl)cccc3c1O2 (stereo not given)	0.365	1.39	0.669	2.5	0.887	2.89	1.1	3.15	0.282	1.47	0.847	3.11	0.433	1.78	0.405	2.32	0.68	3.9	0.351	1.6
Cc1noc(C)c1-c1ccc2[nH]c(=O)n3c2c1OC[C@@H]3c1ccccn1	> 100	> 100	1	> 100	0.868	> 100	> 25.8	> 100	0.329	> 100	0.965	> 100	> 27.8	> 100	0.959	> 100	3.92	> 100	0.302	> 100
COc1ccc2c(-c3cc4ccccc4o3)cc(=O)oc2c1	–	> 100	–	> 100	–	> 100	–	> 100	–	> 100	–	> 100	–	> 100	–	> 100	–	> 100	–	> 100
Cc1c(-c2nc(N)nc(C3CC3)c2C)nc(N)nc1C1CC1	–	> 100	–	> 100	–	> 100	–	> 100	–	> 100	–	> 100	–	> 100	–	> 100	–	> 100	–	> 100
COc1ccc(C2C(C#N)=C(N)OC3=C2CCCc2ccc(F)cc23)cc1OC (stereo not given)	20.9	54.4	18.5	40	17.3	45.5	24.5	> 62.4	28.1	> 77.7	18.3	46.3	19.1	43.6	26.6	> 100	29.6	> 67.8	21.6	47
N#Cc1c(-c2ccccc2)nc2c(c(-c3ccccc3)nn2-c2ccccc2)c1-c1ccc(O)cc1	1.73	3.26	1.62	3.83	1.7	3.31	1.58	3.05	1.86	4.76	1.8	3.62	2.02	4.76	2.68	> 100	3.13	12.1	1.7	3.18
CCN(Cc1c(F)cccc1F)c1ccc(CO)c(Cl)c1	0.0663	0.612	17.5	36.6	13	38.3	19.1	52.6	0.0488	18.4	0.0401	0.193	11.4	26.8	0.209	28.2	0.0389	0.149	0.0517	0.325
